Earlier results, collected in patent US10650914B2, “Fresh water acute criteria prediction method based on quantitative structure-activity relationship for metals” (Chinese Research Academy of Environmental Sciences, priority 2015, dated 2020).

system: Carp; conditions: training set

First: [Cu] [Copper]
Second: [Cd] [Cadmium]
The “Observed value (log-LC50)” value of the first is higher: 1.097 for the first, 0.331 for the second.

First: [Zn] [Zinc]
Second: [Cr] [Chromium]
The “Observed value (log-LC50)” value of the first is lower: 2.079 for the first, 2.439 for the second.

For [Ni] [Nickel], the “Observed value (log-LC50)” value is listed as 2.246.

system: Daphnia magna; conditions: fatality rate, 48 hours, 13° C., pH 7.6, total hardness 240 mg/L

Going from [Fe] [Iron] to [Ag] [Silver], the “Endpoint Index” value falls from 2.92 to 0.014.

Compared with [Cu] [Copper], [Zn] [Zinc] is higher in “Endpoint Index” value: 0.014 for the first, 0.13 for the second.

Going from [Pb] [Lead] to [Ni] [Nickel], the “Endpoint Index” value falls from 8.69 to 5.7.

same assay, conditions: training set of leave-one-out internal validation

Compared with [Fe] [Iron], [Ag] [Silver] is lower in “Observed value (log-EC50)” value: 1.7172 for the first, −0.8873 for the second.

Going from [Cu] [Copper] to [Zn] [Zinc], the “Observed value (log-EC50)” value rises from −0.6601 to 0.3010.

First: [Pb] [Lead]
Second: [Ni] [Nickel]
The “Observed value (log-EC50)” value of the first is lower: 1.6231 for the first, 1.9850 for the second.
